Reference: patent US7417044B2, “Tadalafil having a large particle size and a process for preparation thereof” (Teva Pharmaceutical Industries Ltd., priority 2005, dated 2008)
Where “and” joins values, the source holds several entries; their conditions need not be identical. Equal entries are not always repeated.

Legend:
[1] = prior-art tadalafil of U.S. Pat. No. 6,821,975; cited from earlier work
[2] = Particle size of tadalafil by Malvern laser diffraction (Mastersizer S); type: physicochemical
Excerpt: Measurement and characterization of particle size distributions is known in the art. It is possible to compare samples of particulate tadalafil on the basis of individual points on a cumulative particle size distribution curve. The measurements are represented as d(0.X)=Y (where X and Y are Arabic numerals), each “d” describing an individual point on a cumulative PSD curve. The number “X” represents the percentage (number, volume, or weight) of particles in the population having a nominal size up to and including “Y”. Thus, d(0.9)=250μ is characteristic of a PSD in which 90% (number, volume, or weight) of the particles in a population have a nominal size of about 250μ or less (at least some particles having a nominal dimension of 250μ) and so forth. When PSD is determined by the well-know laser-diffraction method described herein, the d(0.X) measurement depicts a volume average. The particle size of tadalafil described herein was measured by Malvern Laser Diffraction using a Mastersizer S instrument. The measuring instrument was equipped with a small cell dispersion unit MS1 with a digital dispersion unit controller. The measurement was performed by using range lens 300RF (working range 0.05-900 mcm), beam length: 2.40 mm, presentation 3$$D (Fraunhofer), number of sweeps 4000, and speed rate 2300±10 rpm. The dilution medium was 0.1% w/v Span 80 in a saturated solution of tadalafil in cyclohexane. The measurement began after 10 seconds of recirculation, after the powder was added directly into the measurement cell filled with the dilution medium. According to the accepted rules of Good Manufacturing Procedures, a sample of tadalafil was measured after a successful blank measurement (% obscuration NMT 0.1%) was performed.

particle size, d(0.9) ([2]; Example 1, final dry material after industrial-scale crystallization from acetone/water with heating/cooling cycles): 60-500 microns
particle size, d(0.9) ([2]; Example 2, final dry material after crystallization from acetone/water with heating/cooling cycles): > 60 microns
particle size, d(0.9) ([2]; Example 3, after milling with micronizer, 50 mm, 4.0 bar feed air and 3.0 bar milling air): about 228.7 microns
particle size, d(0.9) ([2]; Example 4, after milling with micronizer, 50 mm, 2.0 bar feed air and 1.0 bar milling air): about 105.8 microns
particle size, d(0.9) ([2]; Example 5, after milling with Pin-Mill, 9.6 Kg/hr feed rate and 12,000 rpm milling speed): about 52.4 microns
particle size, d(0.9) ([2]; Example 6, after milling with Pin-Mill, 9.6 Kg/hr feed rate and 4500 rpm milling speed): about 202.7 microns
SMILES: CN1CC(=O)N2[C@H](c3ccc4c(c3)OCO4)c3[nH]c4ccccc4c3C[C@@H]2C1=O [tadalafil, (6R-trans)-6-(1,3-benzodioxol-5-yl)-2,3,6,7,12,12a-hexahydro-2-methyl-pyrazino[1′,2′:1,6]pyrido[3,4-b]indole-1,4-dione]
particle size of 90% of the particles [1]: less than 40 microns
particle size, d(0.9) ([2]; starting sample before milling (Examples 3-6)): 584 microns and 538.6 microns and 553.5 microns
